Calls of active or inactive are those of the source.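 How the source made its calls: active means full-shape inhibition curve with partial efficacy, or partial curve whose IC50 upper confidence bound lies within tested doses; inactive means the rest.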
biological target: Klebsiella pneumoniae PriA-SSB C-terminal tail interaction; test: K. pneumoniae PriA-SSBct interaction blockers – biochemical, AlphaScreen, virtual screen prioritized set, dose response (AID 1918986); conditions: PriA binding to biotinylated SSBct peptide

| SMILES | IC50 | outcome |
| --- | --- | --- |
| CC1Sc2ccc(C(=O)Nc3nc(-c4ccccn4)cs3)cc2NC1=O (stereo not drawn) | 7.99 µM |  |
| Cc1c(N)nc(-c2ccccn2)nc1NCC1CCC(C2CC2)O1 (stereo not drawn) | 5.44 µM |  |
| c1cnc2c(SCCn3cncn3)cccc2c1 |  | inactive |
| Cc1ccc(-n2nc(C)cc2NC(=O)CSc2cccc3cccnc23)cc1 |  | inactive |
| CSCC(CCO)Nc1ccc2ccc3cccnc3c2n1 (stereo not drawn) | 9.08 µM |  |
| C1=C(c2cccc3cccnc23)CCNC1 |  | inactive |
| c1cnc2c(SCc3ccn4ncnc4c3)cccc2c1 |  | inactive |
| Oc1cccnc1SCc1ccc(F)c2cccnc12 |  | inactive |
| C(=NNc1ncnc2sccc12)c1ccccn1 | 2.68 µM |  |
| O[C@@H]1COC[C@@H]1Nc1ccc2ccc3cccnc3c2n1 | 4.26 µM |  |
| CCOC(=O)c1[nH]c(C)c(C(=O)CSc2cccc3cccnc23)c1C |  | inactive |
| Fc1cccc(CNc2nc(-c3ccccn3)nc3c2CCC3)c1F | 6.11 µM |  |
| O=C(Cc1ccc(S(=O)(=O)N2CCOCC2)s1)Nc1nc(-c2ccccn2)cs1 |  | inactive |
| OCCCCNc1ccc2ccc3cccnc3c2n1 | 4.33 µM |  |
| O=C(O)CSc1ccc([N+](=O)[O-])c2cccnc12 |  | inactive |
| Clc1cncnc1NN=Cc1ccccn1 | 1.7 µM |  |
| c1ccc(-c2nc3c(c(N4CCCC4)n2)CCC3)nc1 | 17.6 µM |  |
| Clc1ccc(CN2CCOCCOCC2)c2ncccc12 |  | inactive |
| c1cc2c(c(-c3cccc4cccnc34)c1)CNC2 |  | inactive |
| O=[N+]([O-])c1ccc(SC2CCCCC2)c2ncccc12 | inactive |  |
| CC1CC(Nc2nc(-c3ccccn3)nc3c2CCC3)CC(C)N1 (stereo not drawn) | 12.1 µM |  |
| CCCN1CCCc2cc(C(C)C)ccc21 |  | inactive |
| Clc1cccnc1NN=Cc1ccccn1 |  | inactive |

| SMILES | IC50 | outcome |
| --- | --- | --- |
| c1ccc(-c2n[nH]c3ccccc23)nc1 |  | inactive |
| Cc1nn(C(C)C)cc1-c1ccc2cccnc2c1C |  | inactive |
| O=C(CN1C(=O)COc2ccc([N+](=O)[O-])cc21)Nc1nc(-c2ccccn2)cs1 | 12.4 µM |  |
| c1ccc(-c2ncc[nH]2)nc1 | 15.7 µM |  |
| C1=C[C@@H](CNc2nc(-c3ccccn3)cs2)[C@H]2CO[C@@H]1C2 | 11.5 µM |  |
| CO[C@H](C)[C@@H](C)Nc1nc(-c2ccccn2)nc2c1CCC2 | 13.9 µM |  |
| O=C(CSc1cccc2cccnc12)Nc1cccc(N2CCCC2=O)c1 |  | inactive |
| c1ccc(-c2csc(NC3COC4(CCC4)C3)n2)nc1 (stereo not drawn) |  | inactive |
| Cc1nc(SCC(=O)Nc2n[nH]c(-c3ccccn3)n2)n[nH]1 | 15.5 µM |  |
| CCc1nc(C)c(CSc2cccc3cccnc23)o1 |  | inactive |
| CC1CCC(=NNc2ccccc2[N+](=O)[O-])CC1 (stereo not drawn) | 3.64 µM |  |
| Nc1ncc(-c2ccccn2)cn1 |  | inactive |
| O=c1[nH]c(NN=Cc2ccccn2)nc2ccccc12 |  | inactive |
| c1cncc(CSCc2cccc3cccnc23)c1 |  | inactive |
| O=C1CC2(CCOC2)C(C(=O)Nc2nc(-c3ccccn3)cs2)CN1 (stereo not drawn) | 12.6 µM |  |
| OCCC(Nc1ccnc2c1ccc1cccnc12)C(F)F (stereo not drawn) | 4.48 µM |  |
| O=[N+]([O-])c1cc(Cl)cc(C=Nc2ccc(Cl)c3ncccc23)c1O |  | inactive |
| Cc1cc(C)cc(OCCN(C)C(=O)CSc2cccc3cccnc23)c1 |  | inactive |
| Fc1cccc2[nH]c(-c3ccccn3)nc12 |  | inactive |
| O=[N+]([O-])c1ncn(Cc2cccc3cccnc23)n1 |  | inactive |
| FC(F)(F)c1cnc(NN=Cc2ccccn2)c(Cl)c1 | 20.2 µM |  |
| c1cc(CSc2cccc3cccnc23)cc(CN2CCOCC2)c1 |  | inactive |
| O=c1[nH]ncc(NN=Cc2ccccn2)c1Cl |  | inactive |

| SMILES | IC50 | outcome |
| --- | --- | --- |
| COC(C)COc1ccc2ccc3cccnc3c2n1 (stereo not drawn) |  | inactive |
| O=C(O)c1cc(-c2ccccc2)ccn1 | 21 µM |  |
| Cc1ccc(-c2nc(SCC(=O)NCc3ccnc(-c4ccccn4)n3)n[nH]2)cc1 | 37.8 µM |  |
| COc1cc([N+](=O)[O-])c(C(=O)Nc2nc(-c3ccccn3)cs2)cc1SC | 7.02 µM |  |
| CC(C)N(C)S(=O)(=O)c1ccc(F)c(C(=O)Nc2nc(-c3ccccn3)cs2)c1 | 6.82 µM |  |
| CC(C)(C)c1ncc(-c2cccc3cccnc23)o1 |  | inactive |
| OCCCN(CCO)c1ccc2ccc3cccnc3c2n1 |  | inactive |
| O=C(Nc1nc(-c2ccccn2)cs1)C1(C2CCCCO2)CCCO1 (stereo not drawn) |  | inactive |
| c1ccc(-c2cnc3n2CCC3)nc1 |  | inactive |
| Cc1cc(-c2ccccn2)n[nH]1 |  | inactive |
| CC1CC(Nc2nc(-c3ccccn3)cs2)C1 (stereo not drawn) | 13.1 µM |  |
| C(=NNc1ncnc2nc[nH]c12)c1ccccn1 | 1.29 µM |  |
| CSCC(CCO)Nc1ccnc2c1ccc1cccnc12 (stereo not drawn) | 10.8 µM |  |
| CCOC(=O)c1c(C)[nH]c(C(=O)CSc2cccc3cccnc23)c1C |  | inactive |
| CC1(C)CC(CSc2cccc3cccnc23)=NO1 |  | inactive |
| O=C(O)c1cc(C(=O)N2CCS(=O)(=O)CC2)ccn1 |  | inactive |
| CC(C)c1ncc(-c2cccc3cccnc23)n1C |  | inactive |
| Cc1cccc2nc(CSc3cccc4cccnc34)cn12 |  | inactive |
| O=C(Nc1nc(-c2ccccn2)cs1)c1ccc(Cl)c(S(=O)(=O)NCC2CCCO2)c1 (stereo not drawn) | 10 µM |  |
| c1cnc2c(Cn3ccnc3)cccc2c1 |  | inactive |
| Cn1ccc(C23CCC(C2)C3C(=O)Nc2nc(-c3ccccn3)cs2)n1 (stereo not drawn) | 22.2 µM |  |
| CN(C)CCN(C)c1ccc2ccc3cccnc3c2n1 |  | inactive |
